This is an account of results in ChEMBL document CHEMBL1146806, “Halothiophene benzimidazoles as P1 surrogates of inhibitors of blood coagulation factor Xa” (Bioorg Med Chem Lett, 2004).

The target in data set [1] is Trypsin (Homo sapiens, UniProt P07477+P07478+P35030). Nature of the data set: Binding affinity against human trypsin. It is filed as protein assay.
Data set [2] addresses Coagulation factor X (Homo sapiens, UniProt P00742). The data set is described as follows: Binding affinity of the compoumd to human coagulation factor Xa.
Data set [3] in a line: Oral bioavailability in dog. It is filed as ADME, organism-based, Canis lupus familiaris. The following applies: in vivo.
Data set [4] can be described thus: Oral bioavailability in rat. It is filed as ADME, organism-based. Particulars: in vivo.
The nature of data set [5]: Solubility in pH 7.0 phosphate buffer. In kind it is physicochemical.
Data set [6] deals with Prothrombin (Homo sapiens, UniProt P00734). Nature of the data set: Binding affinity against human thrombin.
The target of data set [7] is Serine protease 1 (Homo sapiens, UniProt P07477). The data set is described as follows: Binding affinity of the compoumd against human trypsin was determined.
Sequence of Serine protease 1 (P07477 whole entry): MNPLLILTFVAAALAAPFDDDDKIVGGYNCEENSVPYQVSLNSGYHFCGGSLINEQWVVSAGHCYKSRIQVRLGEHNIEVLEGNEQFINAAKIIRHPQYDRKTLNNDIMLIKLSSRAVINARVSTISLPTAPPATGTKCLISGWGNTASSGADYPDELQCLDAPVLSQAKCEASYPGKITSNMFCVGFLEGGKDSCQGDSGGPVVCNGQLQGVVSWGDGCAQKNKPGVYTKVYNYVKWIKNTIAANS

Sequence of Coagulation factor X (P00742 41-179 limits assumed): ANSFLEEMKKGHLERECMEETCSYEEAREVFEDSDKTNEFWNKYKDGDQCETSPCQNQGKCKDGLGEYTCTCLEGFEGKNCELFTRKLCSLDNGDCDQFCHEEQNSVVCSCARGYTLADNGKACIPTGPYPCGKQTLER
Sequence of Coagulation factor X (P00742 235-488 limits assumed): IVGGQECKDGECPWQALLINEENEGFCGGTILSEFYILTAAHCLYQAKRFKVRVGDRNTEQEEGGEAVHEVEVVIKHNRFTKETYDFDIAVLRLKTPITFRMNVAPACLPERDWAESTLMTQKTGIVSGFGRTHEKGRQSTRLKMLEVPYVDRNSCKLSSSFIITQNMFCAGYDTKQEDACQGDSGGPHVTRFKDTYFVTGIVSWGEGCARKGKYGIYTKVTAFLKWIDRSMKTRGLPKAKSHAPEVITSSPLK

As usually defined, the IC50 is the concentration at which inhibition is half-maximal. High values mean lower potency, low ones higher potency. As usually defined, the bioavailability is the share of a dose that reaches the circulation, judged against a reference dose that is usually intravenous. Low readings indicate poor availability, high ones good availability. A word on the solubility: it is the dissolved amount per volume that the medium holds. Lower therefore signals a poorly soluble substance. Regarding `Cc1cc(NC(=O)CCc2ccc3[nH]c(-c4ccc(Br)s4)nc3c2)ccc1N1CCOCC1=O`, the IC50 was more than 10 µM in data set [1], 0.0084 µM in data set [2] and more than 10 µM in data set [6]. The bioavailability in data set [3] and in data set [4] was less than 20% each time. The same compound displayed a solubility in data set [5] of less than 10 µg/mL.

Compound `O=C(COc1ccc2[nH]c(-c3ccc(Cl)s3)nc2c1)Nc1ccc(N2CCOCC2=O)cc1` showed an IC50 in data set [2] of 0.15 µM. Further, the bioavailability in data set [3] and in data set [4] was less than 20% throughout. Also, the solubility in data set [5] is less than 10 µg/mL.

With `O=C(Nc1ccc(N2CCOCC2=O)cc1)c1ccc2[nH]c(-c3ccc(Cl)s3)nc2c1`, the concentration for half-maximal inhibition (IC50) in data set [1] and in data set [6] was more than 10 µM in each case. For the same compound, the bioavailability in data set [3] and in data set [4] was less than 20% in each case. Besides, the solubility in data set [5] is less than 10 µg/mL.

`O=C(Cc1ccc2[nH]c(-c3ccc(Cl)s3)nc2c1)Nc1ccc(N2CCCCC2=O)cc1`: the results for the IC50 in data set [1], in data set [2] and in data set [6] were more than 10 µM, 0.26 µM and more than 10 µM, respectively. Also, the bioavailability in data set [3] and in data set [4] was less than 20% throughout. The solubility in data set [5] is less than 10 µg/mL.

Take `O=C(CCc1ccc2[nH]c(-c3ccc(Cl)s3)nc2c1)Nc1ccc(N2CCOCC2=O)c(Cl)c1`: the values for the IC50 in data set [7], in data set [2] and in data set [6] were more than 10 µM, 0.007 µM and more than 10 µM, respectively. Further, the bioavailability in data set [3] and in data set [4] was less than 20% in each case. The compound also had a solubility in data set [5] of less than 10 µg/mL.

`CCC[C@@H](NC(=O)Nc1ccc(Cl)cc1)C(=O)Nc1ccc(N2CCOCC2=O)cc1`: the IC50 in data set [7] and in data set [6] was more than 10 µM in each case. Further, the bioavailability in data set [3] and in data set [4] was less than 20% throughout. The same compound gave a solubility in data set [5] of less than 10 µg/mL.

`O=C(CCc1ccc2[nH]c(-c3ccc(Cl)s3)nc2c1)Nc1ccc(N2CCOCC2=O)cc1`: the bioavailability in data set [3] and in data set [4] was less than 20% each time. The compound further displayed a solubility in data set [5] of less than 10 µg/mL.

For `O=C(CCc1ccc2[nH]c(-c3ccc(Cl)s3)nc2c1)Nc1ccc(-n2ccccc2=O)c(F)c1`, the IC50 in data set [7] was more than 10 µM; in data set [2] it was 0.0076 µM; in data set [6], more than 10 µM. Further, the bioavailability in data set [3] and in data set [4] was less than 20% in each case. The same compound came in with a solubility in data set [5] of less than 10 µg/mL.

For `O=C(Cc1ccc2[nH]c(-c3ccc(Cl)s3)nc2c1)Nc1ccc(N2CCCC2=O)cc1`, the IC50 in data set [1] was more than 10 µM; in data set [2] it was 0.53 µM; in data set [6] it was more than 10 µM. Further, the bioavailability in data set [3] and in data set [4] was less than 20% throughout. For the same compound, the solubility in data set [5] was less than 10 µg/mL.

`O=C(CCc1ccc2nc(-c3ccc(Br)s3)[nH]c2c1)NCC1CCN(c2ccncc2)CC1` came in with an IC50 in data set [2] of 0.058 µM. In addition, the bioavailability in data set [3] and in data set [4] was less than 20% each time. Also, in data set [5], the solubility was less than 10 µg/mL.

Take `Cc1cc(NC(=O)CCc2ccc3[nH]c(-c4ccc(Cl)s4)nc3c2)ccc1N1CCOCC1=O`: the IC50 in data set [1] was more than 10 µM; in data set [2] it was 0.0082 µM; in data set [6] it was more than 10 µM. Moreover, the bioavailability in data set [3] and in data set [4] was less than 20% each time. This compound returned a solubility in data set [5] of less than 10 µg/mL.

`O=C(CCc1ccc2nc(-c3ccc(Cl)s3)[nH]c2c1)Nc1ccc(N2CCOCC2=O)cc1F`: the IC50 in data set [7] and in data set [6] was more than 10 µM each time. Also, the bioavailability in data set [3] and in data set [4] was less than 20% in each case. The solubility in data set [5] is less than 10 µg/mL.

Consider `CC1CC(=O)NN=C1c1ccc2[nH]c(-c3ccc(Br)s3)nc2c1` (centres undefined), for which the IC50 in data set [7] is more than 10 µM; in data set [2], 0.98 µM; in data set [6], more than 10 µM. Moreover, the bioavailability in data set [3] and in data set [4] was less than 20% throughout. Further, the solubility in data set [5] was less than 10 µg/mL.

Regarding `CS(=O)(=O)c1ccccc1-c1ccc(NC(=O)Cc2ccc3[nH]c(-c4ccc(Cl)s4)nc3c2)cc1`, the IC50 in data set [1] and in data set [6] was more than 10 µM in each case. Also, the bioavailability in data set [3] and in data set [4] was less than 20% throughout. The compound also displayed a solubility in data set [5] of less than 10 µg/mL.

Regarding `O=C(Cc1ccc(N2CCOCC2=O)cc1)Nc1ccc2[nH]c(-c3ccc(Cl)s3)nc2c1`, the figures for the IC50 in data set [1], in data set [2] and in data set [6] were more than 10 µM, 1.2 µM and more than 10 µM, respectively. Besides, the bioavailability in data set [3] and in data set [4] was less than 20% throughout. The same compound gave a solubility in data set [5] of less than 10 µg/mL.

For `Cc1cc(NC(=O)COc2ccc3[nH]c(-c4ccc(Cl)s4)nc3c2)ccc1N1CCOCC1=O`, the IC50 in data set [1] is more than 10 µM; in data set [2] it was 0.02 µM; in data set [6], more than 10 µM. The bioavailability in data set [3] and in data set [4] was less than 20% throughout. Also, in data set [5], the solubility was less than 10 µg/mL.

`O=C(Cc1ccc2[nH]c(-c3ccc(Cl)s3)nc2c1)NCc1ccc(N2CCOCC2=O)cc1`: the IC50 in data set [2] was found to be 0.17 µM. Moreover, the bioavailability in data set [3] and in data set [4] was less than 20% each time. Further, in data set [5], the solubility is less than 10 µg/mL.

Compound `N=C(N)c1cccc(N[C@H](C(=O)Nc2ccc(N3CCCCC3=O)cc2)c2ccccc2)c1` yielded an IC50 in data set [2] of 0.015 µM. Further, the bioavailability in data set [3] and in data set [4] was less than 20% throughout. For the same compound, the solubility in data set [5] is less than 10 µg/mL.

For `O=C(Cc1ccc2[nH]c(-c3ccc(Cl)s3)nc2c1)Nc1ccc(N2CCOCC2=O)cc1`, the IC50 in data set [1] and in data set [6] was more than 10 µM throughout. The bioavailability in data set [3] and in data set [4] was less than 20% in each case. In data set [5], this compound gave a solubility of less than 10 µg/mL.

Consider `Cc1cc(NC(=O)Cc2ccc3[nH]c(-c4ccc(Cl)s4)nc3c2)ccc1N1CCOCC1=O`, for which the bioavailability in data set [3] and in data set [4] was less than 20% in each case. In addition, the solubility in data set [5] is less than 10 µg/mL.

With `O=C(Cc1ccc2[nH]c(-c3ccc(Br)s3)nc2c1)NCC1CCN(c2ccncc2)CC1`, the results for the IC50 in data set [1], in data set [2] and in data set [6] were more than 10 µM, 0.0052 µM and more than 10 µM, respectively. Also, the bioavailability in data set [3] and in data set [4] was less than 20% throughout. Besides, in data set [5], the solubility was less than 10 µg/mL.

On to `CC1CC(=O)NN=C1c1ccc2[nH]c(-c3ccc(Cl)s3)nc2c1` (centres undefined), for which the IC50 in data set [1] and in data set [6] was more than 10 µM in each case. The bioavailability in data set [3] and in data set [4] was less than 20% each time. In data set [5], this compound came in with a solubility of less than 10 µg/mL.

Consider `Cc1cc(NC(=O)Cc2ccc3[nH]c(-c4ccc(Br)s4)nc3c2)ccc1N1CCOCC1=O`, for which the IC50 in data set [2] is 0.041 µM. Further, the bioavailability in data set [3] and in data set [4] was less than 20% throughout. This compound also showed a solubility in data set [5] of less than 10 µg/mL.

With `O=C(Cc1ccc2[nH]c(-c3ccc(Cl)s3)nc2c1)NCC1CCN(c2ccncc2)CC1`, the half-maximal inhibitory concentration (IC50) is more than 10 µM in data set [1], 0.014 µM in data set [2] and more than 10 µM in data set [6]. Further, the bioavailability in data set [3] and in data set [4] was less than 20% throughout. Also, the solubility in data set [5] is less than 10 µg/mL.

For the compound `O=C(Cc1ccc2[nH]c(-c3ccc(Br)s3)nc2c1)Nc1ccc(-n2ccccc2=O)cc1`, the results for the IC50 in data set [1], in data set [2] and in data set [6] were more than 10 µM, 0.063 µM and more than 10 µM, respectively. Besides, the bioavailability in data set [3] and in data set [4] was less than 20% in each case. The compound also displayed a solubility in data set [5] of less than 10 µg/mL.

For the compound `Cc1cc(NC(=O)Cc2ccc3[nH]c(-c4ccc(Cl)s4)nc3c2)ccc1-n1ccccc1=O`, in data set [2], the IC50 is 0.18 µM. Also, the bioavailability in data set [3] and in data set [4] was less than 20% throughout. The compound further displayed a solubility in data set [5] of less than 10 µg/mL.

With `O=C(NCc1ccc2[nH]c(-c3ccc(Cl)s3)nc2c1)c1ccc(N2CCOCC2=O)cc1`, the IC50 was more than 10 µM in data set [1], 0.44 µM in data set [2] and more than 10 µM in data set [6]. For the same compound, the bioavailability in data set [3] and in data set [4] was less than 20% each time. Moreover, the solubility in data set [5] was less than 10 µg/mL.

Take `O=C(CNC(=O)Nc1ccc(Cl)cc1)Nc1ccc(N2CCOCC2=O)cc1`: the IC50 in data set [7] is more than 10 µM; in data set [2], 0.032 µM; in data set [6], more than 10 µM. Also, the bioavailability in data set [3] and in data set [4] was less than 20% each time. In addition, the solubility in data set [5] is less than 10 µg/mL.
